{"source": "patent US9034929B2", "about": "“Aminoalcohol and biocide compositions for aqueous based systems” (ANGUS Chemical Company, priority 2007, dated 2015)", "key": {"[1]": {"system": "fungi of a mixed bacterial/fungal inoculum isolated from spoiled metalworking fluids", "assay": "ASTM Practice E 2275-03 microbial challenge test of diluted metalworking fluids, fungal counts", "format": "cell-based", "description": "(§1) This compound was formulated at 8% by weight into a generic semi-synthetic metalworking fluid concentrate as described in Table 1. Identical formulations were prepared except substituting conventional amino alcohol compounds for 3A4O. The conventional amino alcohols were 2-amino-2-methyl-1-propanol (AMP) and n-butylethanolamine (BEA). An identical set of fluid concentrates was prepared including 1.5% of a 77% aqueous solution of 1,3,5-tris(2-hydroxyethyl)-s-triazine preservative, allowing us to evaluate fluids with and without preservative. The fluid concentrates were diluted at a rate of 20 parts Chicago tap water to 1 part fluid concentrate (by weight); the active amino alcohol concentration at dilution was therefore approximately 0.4% and the active preservative dosage (in the preserved set) was approximately 0.058%. These fluids were subjected to microbial challenge testing by ASTM Practice E 2275-03. In this method fluids are inoculated initially and then weekly with a mixed bacterial/fungal inoculum isolated from spoiled metalworking fluids. The bacterial and fungal counts are measured weekly using a serial dilution plate count method, and reported as colony forming units per milliliter (CFU/mL). The lower the CFU/mL the better the microbial control, and the longer the predicted service life of the fluid. The microbial results are described in FIGS. 1 & 2 (unpreserved) and FIGS. 3 & 4 (preserved with triazine).\n(§2) This material was formulated into the same metalworking fluid concentrate described in Example A, at an 8% concentration. Identical fluids were prepared using 8% 2-amino-2-methyl-1-propanol (AMP) and 8% dicyclohexylamine (DCHA). The preservative benzisothiazolinone (BIOBAN BIT 20 DPG from Dow Biocides) was added to each fluid concentrate at 1.2%, giving an active concentration of 0.24% in the fluid concentrates and 0.012% in the use diluted fluids. The diluted fluids were subjected to the same microbial testing protocol described in Example A, and the results are described in FIGS. 5 & 6.\nIn order to understand the influence of use level of the amino alcohols of the invention, we prepared similar semi-synthetic fluid concentrates as described previously but using 4% amino alcohol to give 2000 ppm at use dilution; the difference in the formulation was made up with water. The fluid concentrates were preserved with the same level of triazine-77% described previously. These fluids were diluted and subjected to the same bacterial/fungal challenge tests described in Examples A and B; the data are found in FIGS. 8 & 9. […]"}, "[2]": {"system": "bacteria of a mixed bacterial/fungal inoculum isolated from spoiled metalworking fluids", "assay": "ASTM Practice E 2275-03 microbial challenge test of diluted metalworking fluids, bacterial counts", "format": "cell-based", "conditions": "for bacterial growth / resistance to bacterial attack: 8% amino alcohol fluid with benzisothiazolinone (BIT), 0.012% active in diluted fluid, FIG. 5", "description": "as §1, §2\nIn order to understand the influence of use level of the amino alcohols of the invention, we prepared similar semi-synthetic fluid concentrates as described previously but using 4% amino alcohol to give 2000 ppm at use dilution; the difference in the formulation was made up with water. The fluid concentrates were preserved with the same level of triazine-77% described previously. These fluids were diluted and subjected to the same bacterial/fungal challenge tests described in Examples A and B; the data are found in FIGS. 8 & 9.\nFIGS. 10-17 provide additional comparisons between 3-amino-4-octanol (3A4O), an aminoalcohol of the invention, and the non-invention aminoalcohol compounds 2-amino-2-methyl-1-propanol (AMP) and n-butylethanolamine (BEA), in conjunction with various biocides. In particular, FIGS. 10 and 11 bacterial and fungal efficacy comparisons of the aminoalcohols with BIOBAN P-1487 (a combination of 4-(2-nitrobutyl)-morpholine with 4,4′-(2-ethyl-2-nitrotrimethylene)dimorpholine). This biocide was added to give 750 ppm in the diluted fluid. The amine dosage was adjusted to give 4000 ppm at dilution. FIGS. 12 and 13 show bacterial and fungal efficacies of the aminoalcohols in the presence of a triazine/IPBC biocide blend. Triazine-78% was added at 750 ppm based on diluted fluid and iodopropynylbutylcarbamate (IPBC) added at 300 ppm active at dilution. The amine dosage was adjusted to give 3000 ppm at dilution. FIGS. 14 and 15 show bacterial and fungal efficacy of the compounds with Benzisothiazolinone (BIT). BIT was added at 120 ppm active based on diluted fluid and iodopropynylbutylcarbamate (IPBC) added at 300 ppm active at dilution. The amine dosage was adjusted to give 3000 ppm at dilution. FIGS. 16 and 17 show bacterial and fungal efficacy of the aminoalcohols with a chloromethylisothiazolinone/methylisothiazolinone (CMIT/MIT) blend. […]"}, "[3]": {"system": "mycobacterium immunogenum (ATTCC strain 700505)", "assay": "ASTM microbial challenge test with mycobacterial inoculum", "format": "cell-based", "conditions": "8% amino alcohol fluid with 1.5% triazine preservative (77% active) in concentrate; FIG. 7"}, "pseudomonas aeroginosa": {"system": "pseudomonas aeroginosa", "conditions": "stated as known; cited from earlier work"}, "[4]": {"system": "fungi of a mixed bacterial/fungal inoculum isolated from spoiled metalworking fluids", "conditions": "at the dosage used (about 0.058% active at dilution); cited from earlier work"}}, "data": [{"smiles": "CCCCC(O)C(C)N", "note": "(stereo not shown) [2A3H, 2-amino-3-heptanol]", "values": [{"measurement": "fungal growth / resistance to fungal attack", "setting": "[1]; 8% amino alcohol fluid with benzisothiazolinone (BIT), 0.012% active in diluted fluid, FIG. 6", "value": "resists attack better than that with AMP, and is comparable in resistance to the fluid with DCHA"}, {"measurement": "fungal growth (plate count, CFU/mL)", "setting": "[1]; unpreserved semi-synthetic MWF, 8% amino alcohol in concentrate (about 0.4% at dilution), weekly inoculation, FIG. 2", "value": "does not significantly inhibit bacterial or fungal growth"}, {"measurement": "bacterial growth / resistance to bacterial attack", "setting": "[2]", "value": "more resistant to bacterial attack than the others"}, {"measurement": "bacterial growth (plate count, CFU/mL)", "setting": "[2]; unpreserved semi-synthetic MWF, 8% amino alcohol in concentrate (about 0.4% at dilution), weekly inoculation, FIG. 1", "value": "does not significantly inhibit bacterial or fungal growth"}]}, {"smiles": "CCCCC(O)C(N)CC", "note": "(stereo not shown) [3A4O, 3-amino-4-octanol]", "values": [{"measurement": "fungal growth (plate count, CFU/mL)", "setting": "[1]; 8% amino alcohol fluid preserved with triazine (about 0.058% active at dilution), FIG. 4", "value": "unexpected reduction in growth rate over the full course of the test"}, {"measurement": "enhancement of biocide efficacy against fungi", "setting": "[1]; amine 3000-4000 ppm at dilution with BIOBAN P-1487, triazine/IPBC, BIT or CMIT/MIT, FIGS. 11, 13, 15, 17", "value": "greater enhancement against fungi"}, {"measurement": "bacterial growth (plate count, CFU/mL)", "setting": "[2]; 8% amino alcohol fluid preserved with triazine (about 0.058% active at dilution), FIG. 3", "value": "unexpected reduction in growth rate over the full course of the test"}, {"measurement": "enhancement of biocide efficacy against bacteria", "setting": "[2]; amine 3000-4000 ppm at dilution with BIOBAN P-1487, triazine/IPBC, BIT or CMIT/MIT, FIGS. 10, 12, 14, 16", "value": "increased enhancement of biocide efficacy"}]}, {"smiles": "CC(C)(N)CO", "note": "[AMP, 2-amino-2-methyl-1-propanol, reference compound]", "values": [{"measurement": "mycobacterial growth / resistance", "setting": "[3]", "value": "virtually no inhibition of activity"}, {"measurement": "bacterial growth / resistance to bacterial attack", "setting": "[2]", "value": "relatively poor performance against bacteria"}]}, {"smiles": "O=c1[nH]sc2ccccc12", "note": "[BIT, benzisothiazolinone]", "values": [{"measurement": "efficacy against pseudomonas aeroginosa", "setting": "pseudomonas aeroginosa", "value": "not to be effective"}]}, {"smiles": "C1CCC(NC2CCCCC2)CC1", "note": "[DCHA, dicyclohexylamine, reference compound]", "values": [{"measurement": "bacterial growth / resistance to bacterial attack", "setting": "[2]", "value": "the opposite is true"}]}, {"smiles": "OCCN1CN(CCO)CN(CCO)C1", "note": "[triazine preservative, 1,3,5-tris(2-hydroxyethyl)-s-triazine]", "values": [{"measurement": "efficacy of the preservative alone against fungi", "setting": "[4]", "value": "not effective against fungi"}]}]}
